Values of other authors in article PMC9046186, “A distinctive ligand recognition mechanism by the human vasoactive intestinal polypeptide receptor 2” (Nature Communications, 2022).

Experiments:
VIP2R = details: introduction, Fig. 1a, b; no reference given
VIP1R = details: introduction, Fig. 1a, b; no reference given

Row | Substance | affinity at VIP2R (VIP2R) | affinity at VIP1R (VIP1R)
1 | Vasoactive intestinal peptide [VIP] | comparable affinity | comparable affinity
2 | pituitary adenylate cyclase-activating polypeptide [PACAP38] | comparable affinity | comparable affinity
